Results as given in patent US20230407321A1, “METHOD TO DELIVER CHEMICALS AND NUCLEIC ACIDS TO PLANT CELLS USING CELLULOSE NANOCRYSTALS AS A CARRIER” (BOARD OF TRUSTEES OF THE UNIVERSITY OF ARKANSAS, priority 2022, published 2023).

Experiments:
[1] = test system: N. tabacum callus culture; assay: Tobacco callus growth on MS media with 2,4-D, CNC or CNC-2,4-D conjugate; format: cell-based, Nicotiana tabacum; conditions: reduced amount of 2,4-D (0.4 mg/L or equivalent), 35 days in the dark, total fresh weight
Protocol: To understand if CNC can deliver a plant hormone that encourages cell division to plants, CNCs conjugated with 2,4-D were added to MS medium. 2,4-D was selected for conjugation based on the extensive use of this synthetic auxin as both a plant growth regulator commonly employed in tissue cultures and as an active ingredient in commercial herbicides. At a modest dose of 1 mg/L, 2,4-D can act as a positive growth regulator and is commonly used in plant cell cultures. […] To estimate if the conjugation of CNC and 2,4-D can improve the uptake of 2,4-D, the total biomass of callus tissues cultivated on media containing 2,4-D was measured. N. tabacum calli were seeded on media containing either a standard dose of 2,4-D (1 mg/L) or a reduced dose of 2,4-D (0.4 mg/L) both conjugated and non-conjugated with CNC. […]
N. tabacum callus culture that was established by Khodakovskaya et al. was used in experiments. […] Callus growth was on the following mediums was assessed: MS medium (no 2,4-D supplement); MS medium supplemented with reduced dose of 2,4-D (0.4 mg/L); MS medium supplemented only with CNC (0.4 mg/L); MS medium supplemented with non-conjugated CNC (0.4 mg/L) and 2,4-D (0.4 mg/L); and MS medium supplemented with CNC-2,4-D conjugate (with 0.4 mg/L 2,4D). Total produced cell biomass was evaluated by measurement of total fresh weight of callus culture generated in the end of cultivation period.

[2] = test system: Arabidopsis thaliana leaves; assay: Confocal microscopy uptake of CNC-DTAF by Arabidopsis leaves; format: cell-based; conditions: free CNC or DTAF in doses comparable with amounts in the CNC-DTAF conjugate (negative controls), 4 hours
Protocol: To evaluate entry of synthesized CNC-dye conjugates into leaves, 12-day-old Arabidopsis thaliana seedlings were soaked with CNC-DTAF conjugate solution for 4 hours. Additionally, both protoplasts and callus cells of Nicotiana tabacum were incubated with CNC-FITC conjugate for 4 hours, as shown in FIG. 4A. All samples were imaged with confocal microscopy. The fluorescence of CNC-DTAF and CNC-FITC stained samples was digitally measured to determine the difference in signal intensity between conjugate-treated and untreated plant samples.
FIGS. 4B-F show fluorescence intensity images and measured fluorescence intensity (f) of Arabidopsis leaves incubated with water (FIG. 4B), CNC (FIG. 4C), DTAF (FIG. 4D) and CNC-DTAF conjugates (FIG. 4E), for 4 hours.
This observation indicated the ability of CNC to penetrate the cell wall and deliver dye inside the cell.
Leaves of 12-day-old A. thaliana seedlings were soaked in water (control), DTAF solution, CNC solution, or DTAF-CNC solution (1 mg/mL) for 4 hours and then intensively washed with ddH2O to fully remove residual treatments. Both freshly isolated N. tabacum protoplasts and callus cells that were cultivated for 20 days on standard Murashige and Skoog medium (MS medium) were immersed into 1 mg/mL of FITC-CNC conjugate or solution CNC and allowed to incubate for 4 hours. […]

Compound: O=C(O)COc1ccc(Cl)cc1Cl [2,4-D, 2,4-dichlorophenoxyacetic acid]
- cell growth compared to medium with regular dose of 2,4-D (1 mg/L) [1]: suppressed cell growth

Compound: Cl.O=C1OC2(c3ccc(O)cc3Oc3cc(O)ccc32)c2ccc(Nc3nc(Cl)nc(Cl)n3)cc21 [DTAF, 5-[(4,6-Dichlorotriazin-2-yl)amino]fluorescein hydrochloride]
- fluorescence observed in leaves [2]: only slight autofluorescence
